In this assay the target is T1, human ERK-2 (Mitogen Activated Kinase 1) (Homo sapiens, UniProt P28482).
T1 construct: N-terminal 6-His fusion protein in E. coli and corresponding to aa 8-360; 6-His (N); made in house; host or cells: E. coli
T1 sequence (P28482 8-360): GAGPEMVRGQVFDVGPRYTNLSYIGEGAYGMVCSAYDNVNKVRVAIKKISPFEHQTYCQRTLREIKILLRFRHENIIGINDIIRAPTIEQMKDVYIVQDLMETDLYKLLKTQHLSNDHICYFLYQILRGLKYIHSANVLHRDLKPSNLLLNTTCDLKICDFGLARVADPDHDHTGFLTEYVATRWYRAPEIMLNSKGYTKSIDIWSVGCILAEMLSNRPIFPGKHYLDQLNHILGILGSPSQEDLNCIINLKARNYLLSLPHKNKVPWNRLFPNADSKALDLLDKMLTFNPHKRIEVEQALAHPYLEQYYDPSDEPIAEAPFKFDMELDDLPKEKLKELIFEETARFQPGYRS
The assay is described as follows: ERK-2 Enzymatic Assay. Format: biochemical. The note with it: TABLE I; 5nM ERK-2 enzyme, 25µM ATP, S/T17 peptide substrate; single assay or mean of multiple assays. On the procedure:
Compounds were tested in an enzymatic assay using human ERK-2 (Mitogen Activated Kinase 1), recombinantly expressed as an N-terminal 6-His fusion protein in E. coli and corresponding to aa 8-360. The substrate used was the fluorescent Omnia peptide S/T17 (Invitrogen of Carlsbad, CA; Cat. KNZ1171C). Test compounds were diluted in DMSO in 3-fold serial dilutions at 100x final concentrations. […] The assay was run at ambient temperature in a white 384-well polypropylene plate (Nunc, Inc of Naperville, IL; Cat. 267462) collecting data every 50 seconds for approximately 30 minutes on an Envision plate reader (PerkinElmer, Inc. of Waltham, MA); Excitation 340 nm/Emission 495 nm. The data collected from each well was fit to a straight line and the resulting rates were used to calculate percent of control. Percent of control was plotted against compound concentration and IC50 values were determined using a four-parameter fit. Representative data is in TABLE I and TABLE II. The reported IC50 may be from a single assay or the mean of multiple assays.
On to “2-(tetrahydro-pyran-4-ylamino)-quinazoline-7-carboxylic acid [(R)-(4-cyano-3-fluoro-phenyl)-(1-methyl-1H-pyrazol-4-yl)-methyl]-amide [Compound I-45]”, for which the IC50 (as a rule, the point on the concentration scale where inhibition reaches its midpoint) is 22 nM.
`O=C(N[C@H](c1ccc(C(F)(F)F)c(F)c1)[C@@H]1CCCN1)c1ccc2cnc(NC3CCOCC3)nc2c1` (stereo in doubt) [Compound I-7, 2-(tetrahydropyran-4-ylamino)-quinazoline-7-carboxylic acid [(S)-(3-fluoro-4-trifluoromethyl-phenyl)-(R)-pyrrolidin-2-yl-methyl]-amide] came in with an IC50 of 1.8 nM.
On to `O=C(N[C@H](c1ccc(F)c(Cl)c1)[C@@H]1CCNC1)c1ccc2cnc(NC3CCOCC3)nc2c1` (stereo in doubt) [Compound I-9, 2-(tetrahydropyran-4-ylamino)-quinazoline-7-carboxylic acid [(R)-(3-chloro-4-fluoro-phenyl)-(S)-pyrrolidin-3-yl-methyl]-amide], for which the IC50 is 6.7 nM. Compared with the last compound, the IC50 is about 3.7-fold higher.
In turn, `O=C(N[C@@H](c1ccc(F)c(Cl)c1)[C@H]1CCNC1)c1ccc2cnc(NC3CCOCC3)nc2c1` (stereo in doubt) [Compound I-11, 2-(tetrahydropyran-4-ylamino)-quinazoline-7-carboxylic acid [(S)-(3-chloro-4-fluoro-phenyl)-(R)-pyrrolidin-3-yl-methyl]-amide] had an IC50 of 6.4 nM. This IC50 and that of the compound before are within 1.5-fold of each other.
For `O=C(N[C@H](c1ccc(Cl)c(F)c1)[C@@H]1CCCN1)c1ccc2cnc(NC3CCOCC3)nc2c1` (stereo in doubt) [Compound I-23, 2-(tetrahydropyran-4-ylamino)-quinazoline-7-carboxylic acid [(S)-(4-chloro-3-fluoro-phenyl)-(R)-pyrrolidin-2-yl-methyl]-amide], the IC50 came out at 2.3 nM. Against the preceding compound, the IC50 is about 2.8-fold lower.
With `COc1ccc([C@@H](NC(=O)c2ccc3cnc(NC4CCOCC4)nc3c2)[C@@H]2CCCN2)cc1F` (stereo in doubt) [Compound I-24, 2-(tetrahydropyran-4-ylamino)-quinazoline-7-carboxylic acid [(S)-(3-fluoro-4-methoxy-phenyl)-(R)-pyrrolidin-2-yl-methyl]-amide], the 50% inhibitory concentration (IC50) worked out at 8.2 nM.
`COc1ccc([C@@H](NC(=O)c2cc(F)c3cnc(NC4CCOCC4)nc3c2)[C@@H]2CCCN2)cc1F` (stereo in doubt) [Compound I-25, 5-fluoro-2-(tetrahydropyran-4-ylamino)-quinazoline-7-carboxylic acid [(S)-(3-fluoro-4-methoxy-phenyl)-(R)-pyrrolidin-2-yl-methyl]-amide] had an IC50 of 9 nM. This IC50 and that of the compound before are within 1.5-fold of each other.
In turn, `COc1ccc([C@@H](NC(=O)c2ccc3cnc(N[C@H](C)C4CC4)nc3c2)[C@@H]2CCCN2)cc1F` (stereo in doubt) [Compound I-26, 2-((R)-1-cyclopropyl-ethylamino)-quinazoline-7-carboxylic acid [(S)-(3-fluoro-4-methoxy-phenyl)-(R)-pyrrolidin-2-yl-methyl]-amide] came in with a half-maximal inhibitory concentration (IC50) of 2 nM.
To `Cn1cc([C@H](NC(=O)c2ccc3cnc(NC4CCOCC4)nc3c2)c2ccc(C#N)c(Cl)c2)cn1` (stereo in doubt) [Compound I-48, (R)-N-((3-chloro-4-cyanophenyl)(1-methyl-1H-pyrazol-4-yl)methyl)-2-(tetrahydro-2H-pyran-4-ylamino)quinazoline-7-carboxamide] belongs 1.1 nM; to `Cn1cc([C@@H](NC(=O)c2ccc3cnc(NC4CCOCC4)nc3c2)c2ccc(C#N)c(Cl)c2)cn1` (stereo in doubt) [Compound I-50, (S)-N-((3-chloro-4-cyanophenyl)(1-methyl-1H-pyrazol-4-yl)methyl)-2-(tetrahydro-2H-pyran-4-ylamino)quinazoline-7-carboxamide], 25 nM; to `COc1ccc([C@H](NC(=O)c2cc(F)c3cnc(N[C@@H]4CCOC4)nc3c2)c2cnn(C)c2)cc1F` (stereo in doubt) [Compound I-62, 5-Fluoro-N-((S)-(3-fluoro-4-methoxyphenyl)(1-methyl-1H-pyrazol-4-yl)methyl)-2-((R)-tetrahydrofuran-3-ylamino)quinazoline-7-carboxamide], 4 nM.
Compound `Cn1ccc(C(NC(=O)c2ccc3cnc(NC4CCOCC4)nc3c2)c2ccc(Cl)c(F)c2)n1` (centres unmarked) [Compound I-4, 2-(tetrahydropyran-4-ylamino)-quinazoline-7-carboxylic acid [(4-chloro-3-fluoro-phenyl)-(1-methyl-1H-pyrazol-3-yl)-methyl]-amide] yielded an IC50 of 5 nM.
Compound `O=C(N[C@@H](c1ccc(F)c(Cl)c1)[C@@H]1CCNC1)c1ccc2cnc(NC3CCOCC3)nc2c1` [Compound I-8, 2-(tetrahydropyran-4-ylamino)-quinazoline-7-carboxylic acid [(R)-(3-chloro-4-fluoro-phenyl)-(R)-pyrrolidin-3-yl-methyl]-amide] had an IC50 of 6.7 nM.
Compound `O=C(N[C@H](c1ccc(F)c(Cl)c1)[C@H]1CCNC1)c1ccc2cnc(NC3CCOCC3)nc2c1` [Compound I-10, 2-(tetrahydropyran-4-ylamino)-quinazoline-7-carboxylic acid [(S)-(3-chloro-4-fluoro-phenyl)-(S)-pyrrolidin-3-yl-methyl]-amide] displayed an IC50 of 5.4 nM. This IC50 and that of the compound before are within 1.5-fold of each other.
As for `CN1CCC[C@@H]1[C@@H](NC(=O)c1ccc2cnc(NC3CCOCC3)nc2c1)c1ccc(C(F)(F)F)c(F)c1` [Compound I-17, 2-(Tetrahydropyran-4-ylamino)-quinazoline-7-carboxylic acid [(S)-(3-fluoro-4-trifluoromethyl-phenyl)-((R)-1-methyl-pyrrolidin-2-yl)-methyl]-amide], the IC50 worked out at 2.8 nM.
Compound `CCn1ccc([C@H](NC(=O)c2ccc3cnc(NC4CCOCC4)nc3c2)c2ccc(Cl)c(F)c2)n1` [Compound I-18, 2-(tetrahydropyran-4-ylamino)-quinazoline-7-carboxylic acid [(R)-(4-chloro-3-fluoro-phenyl)-(1-ethyl-1H-pyrazol-3-yl)-methyl]-amide] returned a half-maximal inhibitory concentration (IC50) of 12.8 nM.
`Cn1ccc([C@@H](NC(=O)c2ccc3cnc(NC4CCOCC4)nc3c2)c2ccc(Cl)c(F)c2)n1` [Compound I-20, 2-(tetrahydropyran-4-ylamino)-quinazoline-7-carboxylic acid [(S)-(4-chloro-3-fluoro-phenyl)-(1-methyl-1H-pyrazol-3-yl)-methyl]-amide]: the IC50 came to 2 nM. Against the preceding compound, the IC50 is about 6.4-fold lower.
In the case of `Cn1ccc([C@H](NC(=O)c2ccc3cnc(NC4CCOCC4)nc3c2)c2ccc(Cl)c(F)c2)n1` [Compound I-21, 2-(tetrahydropyran-4-ylamino)-quinazoline-7-carboxylic acid [(R)-(4-chloro-3-fluoro-phenyl)-(1-methyl-1H-pyrazol-3-yl)-methyl]-amide], the concentration for half-maximal inhibition (IC50) is 69 nM.
As for `Cn1cc([C@@H](NC(=O)c2ccc3cnc(N[C@@H]4CCOC[C@@H]4F)nc3c2)c2ccc(Cl)c(F)c2)cn1` [Compound I-27, 2-((3R,4R)-3-fluoro-tetrahydropyran-4-ylamino)-quinazoline-7-carboxylic acid [(S)-(4-chloro-3-fluoro-phenyl)-(1-methyl-1H-pyrazol-4-yl)-methyl]-amide], the IC50 was found to be 15.8 nM.
`Cn1cc([C@@H](NC(=O)c2ccc3cnc(N[C@H]4CCOC[C@@H]4F)nc3c2)c2ccc(Cl)c(F)c2)cn1` [Compound I-29, 2-((3R,4S)-3-fluoro-tetrahydropyran-4-ylamino)-quinazoline-7-carboxylic acid [(S)-(4-chloro-3-fluoro-phenyl)-(1-methyl-1H-pyrazol-4-yl)-methyl]-amide] yielded an IC50 of 3.8 nM. Against the preceding compound, the IC50 is about 4.2-fold lower.
`Cn1cc([C@@H](NC(=O)c2ccc3cnc(N[C@@H]4CCOC[C@H]4F)nc3c2)c2ccc(Cl)c(F)c2)cn1` [Compound I-30, 2-((3S,4R)-3-fluoro-tetrahydropyran-4-ylamino)-quinazoline-7-carboxylic acid [(S)-(4-chloro-3-fluoro-phenyl)-(1-methyl-1H-pyrazol-4-yl)-methyl]-amide]: the concentration for half-maximal inhibition (IC50) came out at 2.1 nM.
Compound `COc1ccc([C@H](NC(=O)c2ccc3cnc(NC4CCOCC4)nc3c2)[C@H]2C[C@H](F)CN2)cc1F` [Compound I-31, 2-(tetrahydropyran-4-ylamino)-quinazoline-7-carboxylic acid [(S)-(3-fluoro-4-methoxy-phenyl)-((2R,4S)-4-fluoro-pyrrolidin-2-yl)-methyl]-amide] gave a half-maximal inhibitory concentration (IC50) of 1.7 nM.
On to `COc1ccc([C@H](NC(=O)c2ccc3cnc(NC4CCOCC4)nc3c2)c2cnn(C)c2)cc1F` [Compound I-32, 2-(tetrahydropyran-4-ylamino)-quinazoline-7-carboxylic acid [(S)-(3-fluoro-4-methoxy-phenyl)-(1-methyl-1H-pyrazol-4-yl)-methyl]-amide], for which the IC50 was 1.1 nM. Against the preceding compound, the IC50 is about 1.5-fold lower.
As to `COc1ccc([C@H](NC(=O)c2cc(F)c3cnc(NC4CCOCC4)nc3c2)c2cnn(C)c2)cc1F` [Compound I-33, 5-fluoro-2-(tetrahydropyran-4-ylamino)-quinazoline-7-carboxylic acid [(S)-(3-fluoro-4-methoxy-phenyl)-(1-methyl-1H-pyrazol-4-yl)-methyl] -amide], the IC50 was 1.5 nM.
On to `O=C(N[C@@H](c1ccc(F)c(Cl)c1)[C@]1(F)CCNC1)c1ccc2cnc(NC3CCOCC3)nc2c1` [Compound I-36], for which the IC50 came out at 1.6 nM.
In the case of `O=C(N[C@H](c1ccc(F)c(Cl)c1)[C@@]1(F)CCNC1)c1ccc2cnc(NC3CCOCC3)nc2c1` [Compound I-37] it was 73.6 nM.

For the origin of these results see EP2739618B1, “QUINAZOLINE COMPOUNDS AS SERINE/THREONINE KINASE INHIBITORS” (Array Biopharma, Inc., priority 2011, dated 2013).
